Measured values reported in patent US20200102349A1, “PEPTIDE REAGENTS AND METHODS FOR DETECTION AND TARGETING OF DYSPLASIA, EARLY CANCER AND CANCER” (THE REGENTS OF THE UNIVERSITY OF MICHIGAN, priority 2014, published 2020).

Columns and labels:
[1] = test system: HT29, SW480, and SW620 cells; assay: Flow cytometry binding to colorectal cancer cells; assay type: cell-based, human; details: 5 μM, 1 hour, 4° C.
Procedure: HT29, SW480, and SW620 cells were grown to confluence and detached with enzyme-free, PBS-based cell dissociation buffer (Gibco, #13151-014) and cell scrapper. The cells were centrifuged at 1500 rpm for 5 min at 4° C., and then blocked with 0.5% BSA in PBS for 30 min on ice and washed with PBS. […] were incubated with 5 μM of either QRH*-Cy5.5 or PEH*-Cy5 for 1 hour at 4° C. with mixing. Cells incubated with PBS alone were used as control. The cells were centrifuged again, washed 3× with cold PBS, and fixed on ice with 4% PFA for 10 min. Flow cytometry was performed with ˜10^4 cells/sample (BD® LSRII, BD Biosciences), and analyzed with the Flowjo software (Tree Star Inc).

HT29 cells [2] = assay: Peptide binding to colorectal cancer cells on confocal microscopy (HT29); assay type: cell-based, human; details: HT29, 5 μM, 3 min
Procedure: (§1) HT29, SW480, and SW620 cells (˜10^3) were grown on cover slips to ˜80% confluence. The cells were washed 1× with PBS and incubated with 5 μM of QRH*-Cy5.5 and PEH*-Cy5.5 for 3 min at RT. The cells were then washed 3× in PBS, fixed with 4% paraformaldehyde (PFA) for 5 min, washed 1× with PBS, and then mounted on glass slides with ProLong Gold reagent containing DAPI (Invitrogen). Confocal fluorescence images were collected with FITC, Cy5.5, and DAPI filters (Leica Inverted SPSX Confocal Microscope System) using a 63× oil-immersion objective. Fluorescence intensities from 5 cells in 2 independent images were quantified using custom Matlab (Mathworks) software.
(§2) We assessed binding of QRH*-Cy5.5 to a panel of colorectal cancer cells that vary in EGFR expression level on confocal microscopy. We observed binding of QRH*-Cy5.5 to the surface (arrows) of HT29, SW480, and SW620 cells with decreasing strength, FIG. 3A-C, scale bars 30 μm. […] Results are an average of 10 cells from 2 independent images. EGFR expression is shown on Western blot, FIG. 3H.

[3] = test system: dysplastic crypts in polyps; assay: Immunofluorescence on mouse colon polyp specimens; details: OCT embedded polyp specimens
Procedure: Specimens of flat dysplasia in mouse colon were formalin fixed and processed as described above. Specimens of polypoid dysplasia in mouse colon were frozen in OCT (Sakura Finetek), cut in 10 μm sections, and incubated with 1:1000 dilution of primary goat anti-mouse anti-EGFR antibody and AF488-labeled secondary antibody, as described previously. The sections were washed 3× with PBS, fixed with 4% PFA for 10 min, washed with PBS 1×, and mounted with Prolong Gold reagent containing DAPI (Invitrogen). Confocal microscopy images were collected with DAPI, AF488, and Cy5.5 filters. Adjacent sections were processed for histology (H&E).

[4] = test system: high-grade dysplasia in human esophagus; assay: Binding of QRH*-Cy5.5 to high-grade dysplasia in human esophagus
HT29 cells [5] = assay: Apparent dissociation constant on flow cytometry; assay type: binding, human; details: 4° C., 1 hour
Procedure: We measured the apparent dissociation constant of the peptide to HT29 cells as an assessment of binding affinity. QRH*-Cy5.5 was serially diluted in PBS at concentrations of 0, 10, 25, 50, 75, 100, 125, 150 and 200 nM. HT29 cells (˜10^5) were incubated with QRH*-Cy5.5 at 4° C. for 1 hour, washed with cold PBS, and the mean fluorescence intensities were measured on flow cytometry. The equilibrium dissociation constant kd=1/ka was calculated by performing a least squares fit of the data to the non-linear equation […]. I0 and Imax are the initial and maximum fluorescence intensities, corresponding to no peptide and at saturation, respectively, and [X] represents the concentration of the bound peptide [Thomas et al., Clin Exp Metastasis, 26:105-119 (2009)]. Origin 6.1 data analysis software (OriginLab Corp) was used to calculate kd.

EGFR = EGFR (Homo sapiens, UniProt P00533); assay: Co-localization of EGFR peptide and anti-EGFR antibody binding on colorectal cancer cells; assay type: cell-based; design: endogenous in cells; host or cells: HT29 human colorectal adenocarcinoma cells (ATCC)
Procedure: We evaluated co-localization of binding by the QRH*-Cy5.5 peptide and a validated anti-EGFR antibody on cells that overexpress EGFR. A panel of colorectal cancer cells (HT29, SW480, and SW620) was grown on cover slips to […]. QRH*-Cy5.5 at 5 μM concentration was incubated with each cell line for 1 hour at 4° C. The cells were washed and fixed with 4% PFA for 5 min. The cells were incubated with primary anti-EGFR antibody and secondary AF488-labeled antibody, as described previously. We applied the peptide rather than the antibody to the cells first because the peptide has a lower affinity and in the lower concentration (<10 μM) is less likely to interfere with antibody binding. Confocal fluorescence images were collected with FITC, Cy5.5, and DAPI filters using a 63× oil-immersion objective.

SW620 cells = assay: Peptide binding to colorectal cancer cells on confocal microscopy (SW620); assay type: cell-based, human; details: SW620, 5 μM, 3 min
Procedure: as §1, §2

HT29 cells [6] = assay: Apparent association time constant on flow cytometry; assay type: binding, human
Procedure: We measured the apparent association time constant of the peptide to HT29 cells as an assessment of binding onset. HT29 cells were grown to […] confluence in 10 cm dishes, and detached with PBS-based cell dissociation buffer (Invitrogen). Cells (˜10^5) were incubated with 5 μM QRH*-Cy5.5 at 4° C. for various time intervals ranging from 0 to 20 min. The cells were centrifuged, washed with cold PBS, and fixed with 4% PFA. Flow cytometry analysis was performed as described above, and the median fluorescence intensity (y) was ratioed with that of HT29 cells without addition of peptide at different time points (t) using Flowjo software. The rate constant k was calculated by fitting the data to a first order kinetics model, y(t)=Imax[1−exp^(−kt)], where Imax=maximum value,^60 using Prism 5.0 software (GraphPad Inc).

- fluorescence for binding to dysplastic crypts [3]: increased fluorescence
- staining of high-grade dysplasia (HGD) [4]: Intense staining
- co-localization with AF488-labeled anti-EGFR antibody (EGFR; HT29 cells, 5 μM): co-localize
- binding on confocal microscopy (EGFR; SW620 cells): Minimal binding
Substance: QRHKPRE (SEQ ID NO: 1) with Cy5.5 fluorophore attached via a GGGSK linker (SEQ ID NO: 18) on the C-terminus [QRH*-Cy5.5]
- binding on flow cytometry compared with control peptide [1]: stronger binding to each cell than PEH*-Cy5.5
- fluorescence intensity of binding (mean±std) (HT29 cells [2]): 3.6±0.6
- Kd (HT29 cells [5]): 50 nM
- fluorescence intensity of binding (mean±std) (SW620 cells): 1.0±0.3
- binding time scale (onset) (HT29 cells [6]): 2.46 min
- apparent association time constant k (HT29 cells [6]; 5 μM, 4° C., flow cytometry): 0.406 min⁻¹
